Reference: patent US6462024B1, “Use of inhibitors of the sodium-hydrogen exchanger for the production of a medicament for decreasing undesired effects of substrates of the heart” (Aventis Pharma Deutschland GmbH, priority 1997, dated 2002)
Entries after “also recorded” stand apart in the source; their conditions may differ.

Tested on: isolated functioning rat heart
Assay: low flow ischemia and reperfusion in the isolated functioning rat heart (working-heart mode)
Parameters: species or system Wistar-Kyoto rats
Conditions: for Incidence of ventricular fibrillations (VF) / Mean duration of ventricular fibrillations (VF) / Incidence of ventricular tachycardias (VT) / Mean duration of ventricular tachycardias and fibrillations (VT + VF): cariporide 1 μmol/l, Rulide 20 mg/kg oral; for incidence of ventricular fibrillation during the reperfusion phase / length of ventricular arrhythmias during the reperfusion phase: macrolide (Rulide) group versus macrolide-pretreated hearts treated with cariporide
Description: All investigations were carried out using hearts of Wistar-Kyoto rats (300-400 g body weight, BW). The rats were kept on a standard diet and had free access to water. The rats were anesthetized with pentobartital (60 mg/kg, i.p.), heparinized (500 I.U./100 g BW i.p.) and respirated with room air via a cannula which was inserted into the trachea. The thorax was then opened, and the heart was removed and placed in a 4° C. physiological solution. After cannulation of the aorta, the hearts were suspended in the unit and perfused in a retrograde manner according to the Langendorff method with an oxygenated (95% O2, 5% CO2), noncirculating Tyrode solution (in mmol/l: NaCl 124.6; KCl 4.0; CaCl2 2.2; MgCl2 1.1; NaHCO3 24.9; NaH2PO4 0.3; glucose 11.1) using a perfusion pressure of 51 mm Hg. The pulmonary artery and the left auricle were then cannulated and all pulmonary veins were ligated close to the auricle. After an equilibration phase of 15 minutes, the retrograde perfusion was changed into an anterograde perfusion (working-heart mode). At the same time, the filling pressure was adjusted to 11 mm Hg and the afterload to 51 mm Hg. The hearts were paced during the entire experiment at a frequency of 5 Hz. After 15 minutes in the working mode, the coronary flow was reduced by 90% in order to include a global low flow ischemia. The aortic pressure drops from 51 to 11 mm Hg in the course of this. This situation represents an angina pectoris attack in the patient. The low flow ischemia lasted 30 minutes. The hearts were then reperfused for 15 minutes in the Langendorff mode and for a further 15 minutes in the working mode. All animals received oral Rulide (macrolide, 20 mg/kg) dissolved in 1 ml of olive oil, or only 1 ml of olive oil (control), before the experiments. The Na^+/H^+ exchange inhibitor cariporide (1 μmol/l) and its vehicle (Tyrode solution) were added directly to the perfusion solution, i.e. immediately before the latter flows into the heart. The computer-controlled infusion of cariporide and the vehicle solution was begun 15 minutes before low flow ischemia and lasted for the entire experiment. The infusion quantity was 1:100th of the heart minute volume. The following parameters were measured 15 minutes before ischemia and at the end of the reperfusion phase: left ventricular pressure (LVP), left auricle pressure (LAP), aortic pressure (AP), heart-time volume (HTV), coronary flow (CF), aortic flow (AF), heart rate (HR), contractility (dP/dtmax), left ventricular pressure increase (LVPI) and the external heart work (EHW). From these values, the recovery (values after reperfusion based on the starting values before ischemia in %) was calculated. Moreover, the ECG was recorded during the entire experiment and the sum of the individual arrhythmia intervals (ventricular tachycardias and ventricular fibrillations) over the entire experimental period was formed.

[1] = pretreatment with Rulide, ischemia and reperfusion

Q: For `CC(C)c1ccc(C(=O)NC(=N)N)cc1S(C)(=O)=O` [Cariporide (HOE642), cariporide], which “effect on the arrhythmias during ischemia” value (during ischemia) is on record?
A: Its value is “no effect”.

Q: And the “Incidence of ventricular fibrillations (VF)” value (during ischemia)?
A: The value was 33%.

Q: What about the “Mean duration of ventricular fibrillations (VF)” value (during ischemia) of the same compound?
A: Its value is 38 ± 26 s.

Q: And the “Incidence of ventricular fibrillations (VF)” value (during reperfusion)?
A: Its value is 0%.

Q: What about the “Incidence of ventricular tachycardias (VT)” value (during reperfusion) of the same compound?
A: Its value is 100%.

Q: And the “Mean duration of ventricular tachycardias and fibrillations (VT + VF)” value (during reperfusion)?
A: Its value is 204 ± 32 s.

Q: And the “incidence of ventricular fibrillation during the reperfusion phase” value?
A: The value was 38%.

Q: What about the “length of ventricular arrhythmias during the reperfusion phase” value of the same compound?
A: Its value is 198 s.

Q: And the “cardiotoxic effect of the macrolide” value (pretreatment of the heart with cariporide, ischemia and reperfusion)?
A: The value was “completely prevented; also recorded: completely inhibits”.

Q: What does the source list for `CC[C@H]1OC(=O)[C@H](C)[C@@H](O[C@H]2C[C@@](C)(OC)[C@@H](O)[C@H](C)O2)[C@H](C)[C@@H](O[C@@H]2O[C@H](C)C[C@H](N(C)C)[C@H]2O)[C@](C)(O)C[C@@H](C)/C(=N\OCOCCOC)[C@H](C)[C@@H](O)[C@]1(C)O` [Rulide, reference compound]?
A: Incidence of ventricular fibrillations (VF) (during ischemia): 100%; Mean duration of ventricular fibrillations (VF) (during ischemia): 181 ± 79 s; Incidence of ventricular fibrillations (VF) (during reperfusion): 100%; Incidence of ventricular tachycardias (VT) (during reperfusion): 100%; Mean duration of ventricular tachycardias and fibrillations (VT + VF) (during reperfusion): 1709 ± 319 s; incidence of ventricular fibrillation during the reperfusion phase: 100%; length of ventricular arrhythmias during the reperfusion phase: 1709 s; incidence and duration of ventricular arrhythmias compared with the control group [1]: increase in the incidence and the duration of ventricular arrhythmias; recovery compared with the control group [1]: further impairment of recovery
